Measured values: ChEMBL document CHEMBL1131978, “3D QSAR studies on new oxazolidinone antibacterial agents by comparative molecular field analysis” (Bioorg Med Chem Lett, 1999)
Converted amounts (≈) assume the structure as drawn.

system: Staphylococcus aureus; experiment: In vitro antibacterial activity against the methicillin-resistant Staphylococcus aureus 88; assay type: functional

Going from `CC(=O)NC[C@H]1CN(c2ccc(N3CCN(C(=O)c4cc(-c5csnn5)no4)CC3)c(F)c2)C(=O)O1` to `CC(=O)NC[C@H]1CN(c2ccc(N3CCN(C(=O)c4cc(-c5cnsn5)no4)CC3)c(F)c2)C(=O)O1`, the “Log 1/MIC” value falls from 0.11 to -0.19.

`COc1ccc(-c2cc(CN3CCN(c4ccc(N5C[C@H](CNC(C)=O)OC5=O)cc4F)CC3)on2)cc1OC` and `COc1cccc(-c2cc(CN3CCN(c4ccc(N5C[C@H](CNC(C)=O)OC5=O)cc4F)CC3)on2)c1` are the same in “Log 1/MIC” value: -0.49 for the first, -0.49 for the second.

`CC(=O)NC[C@H]1CN(c2ccc(N3CCN(C(=O)c4cc(C#N)no4)CC3)c(F)c2)C(=O)O1` and `CC(=O)NC[C@H]1CN(c2ccc(N3CCN(C(=O)c4cc(C)no4)CC3)c(F)c2)C(=O)O1` are the same in “Log 1/MIC” value: -0.19 for the first, -0.19 for the second.

Compared with `CC(=O)NC[C@H]1CN(c2ccc(N3CCN(C(=O)c4cc(-c5cccs5)no4)CC3)c(F)c2)C(=O)O1`, `CC(=O)NC[C@H]1CN(c2ccc(N3CCN(C(=O)c4cc(-c5nccs5)no4)CC3)c(F)c2)C(=O)O1` is higher in “Log 1/MIC” value: -0.11 for the first, 0.41 for the second.

First: CC(=O)NC[C@H]1CN(c2ccc(N3CCN(Cc4cc(-c5ccccn5)no4)CC3)c(F)c2)C(=O)O1
Second: CC(=O)NC[C@H]1CN(c2ccc(N3CCN(Cc4cc(-c5ccc(Cl)cc5)no4)CC3)c(F)c2)C(=O)O1
The “Log 1/MIC” value of the first is higher: -0.19 for the first, -1.7 for the second.

First: COc1cc(C(=O)N2CCN(c3ccc(N4C[C@H](CNC(C)=O)OC4=O)cc3F)CC2)on1
Second: CC(=O)NC[C@H]1CN(c2ccc(N3CCN(C(=O)c4cc(Br)no4)CC3)c(F)c2)C(=O)O1
The “Log 1/MIC” value of the first is lower: -0.19 for the first, 0.11 for the second.

First: CC(=O)NC[C@H]1CN(c2ccc(N3CCN(C(=O)c4ccno4)CC3)c(F)c2)C(=O)O1
Second: CC(=O)NC[C@H]1CN(c2ccc(N3CCN(C(=O)c4cc(Cl)no4)CC3)c(F)c2)C(=O)O1
The “Log 1/MIC” value of the first is lower: -0.19 for the first, 0.11 for the second.

Compared with `CC(=O)NC[C@H]1CN(c2ccc(N3CCN(Cc4cc(-c5ccc(Oc6ccccc6)cc5)no4)CC3)c(F)c2)C(=O)O1`, `CC(=O)NC[C@H]1CN(c2ccc(N3CCN(Cc4cc(-c5ccc(C)cc5)no4)CC3)c(F)c2)C(=O)O1` is higher in “Log 1/MIC” value: -2 for the first, -1.1 for the second.

`CC(=O)NC[C@H]1CN(c2ccc(N3CCN(C(=O)c4nccs4)CC3)c(F)c2)C(=O)O1` and `CC(=O)NC[C@H]1CN(c2ccc(N3CCN(C(=O)c4cccs4)CC3)c(F)c2)C(=O)O1` are the same in “Log 1/MIC” value: -0.19 for the first, -0.19 for the second.

First: CC(=O)NC[C@H]1CN(c2ccc(N3CCN(C(=O)c4cc(C(=O)O)no4)CC3)c(F)c2)C(=O)O1
Second: CC(=O)NC[C@H]1CN(c2ccc(N3CCN(C(=O)c4cc(C(N)=O)no4)CC3)c(F)c2)C(=O)O1
The “Log 1/MIC” value of the first is lower: -2 for the first, -0.19 for the second.

Compared with `CC(=O)NC[C@H]1CN(c2ccc(N3CCN(C(=O)c4cc(C(F)(F)F)no4)CC3)c(F)c2)C(=O)O1`, `CC(=O)NC[C@H]1CN(c2ccc(N3CCN(C(=O)c4cc(O)no4)CC3)c(F)c2)C(=O)O1` is lower in “Log 1/MIC” value: -0.49 for the first, -1.7 for the second.

`CC(=O)NC[C@H]1CN(c2ccc(N3CCN(C(=O)c4cc(C(=O)N(C)C)no4)CC3)c(F)c2)C(=O)O1` and `CC(=O)NC[C@H]1CN(c2ccc(N3CCN(C(=O)c4cc(COC(=O)N(C)C)no4)CC3)c(F)c2)C(=O)O1` are the same in “Log 1/MIC” value: -0.49 for the first, -0.49 for the second.

`CC(=O)NC[C@H]1CN(c2ccc(N3CCN(C(=O)CO)CC3)c(F)c2)C(=O)O1` [EPEREZOLID] and `CC(=O)NC[C@H]1CN(c2ccc(N3CCN(C(=O)c4cc(COC(N)=O)no4)CC3)c(F)c2)C(=O)O1` are the same in “Log 1/MIC” value: -0.19 for the first, -0.19 for the second.

`CCCCCCCCCCS(=O)(=O)N[C@H](CCCCCC)COP(=O)(O)OCCO` and `CC(=O)NC[C@H]1CN(c2ccc(N3CCN(C(=O)c4cc(OCCF)no4)CC3)c(F)c2)C(=O)O1` are the same in “Log 1/MIC” value: -0.19 for the first, -0.19 for the second.

Compared with `CC(=O)NC[C@H]1CN(c2ccc(N3CCN(Cc4cc(-c5ccc(F)cc5)no4)CC3)c(F)c2)C(=O)O1`, `CC(=O)NC[C@H]1CN(c2ccc(N3CCN(Cc4cc(-c5ccc(C#N)cc5)no4)CC3)c(F)c2)C(=O)O1` is lower in “Log 1/MIC” value: -0.49 for the first, -0.8 for the second.

Going from `COc1cc(CN2CCN(c3ccc(N4C[C@H](CNC(C)=O)OC4=O)cc3F)CC2)on1` to `CC(=O)NC[C@H]1CN(c2ccc(N3CCN(Cc4cc(/C=C/c5ccccc5)no4)CC3)c(F)c2)C(=O)O1`, the “Log 1/MIC” value falls from -0.49 to -1.4.

Going from `CC(=O)NC[C@H]1CN(c2ccc(N3CCN(C(=O)c4cc(-c5csnn5)no4)CC3)c(F)c2)C(=O)O1` to `CC(=O)NC[C@H]1CN(c2ccc(N3CCN(C(=O)c4cc(-c5cnsn5)no4)CC3)c(F)c2)C(=O)O1`, the MIC rises from 0.78 µg/mL (≈ 1.51 µM) to 1.56 µg/mL (≈ 3.03 µM) (2-fold).

`COc1ccc(-c2cc(CN3CCN(c4ccc(N5C[C@H](CNC(C)=O)OC5=O)cc4F)CC3)on2)cc1OC` and `COc1cccc(-c2cc(CN3CCN(c4ccc(N5C[C@H](CNC(C)=O)OC5=O)cc4F)CC3)on2)c1` are the same in MIC: 3.12 µg/mL (≈ 5.64 µM) for the first, 3.12 µg/mL (≈ 5.96 µM) for the second.

`CC(=O)NC[C@H]1CN(c2ccc(N3CCN(C(=O)c4cc(C#N)no4)CC3)c(F)c2)C(=O)O1` and `CC(=O)NC[C@H]1CN(c2ccc(N3CCN(C(=O)c4cc(C)no4)CC3)c(F)c2)C(=O)O1` are the same in MIC: 1.56 µg/mL (≈ 3.42 µM) for the first, 1.56 µg/mL (≈ 3.5 µM) for the second.

Compared with `CC(=O)NC[C@H]1CN(c2ccc(N3CCN(C(=O)c4cc(-c5cccs5)no4)CC3)c(F)c2)C(=O)O1`, `CC(=O)NC[C@H]1CN(c2ccc(N3CCN(C(=O)c4cc(-c5nccs5)no4)CC3)c(F)c2)C(=O)O1` is 2-fold lower in MIC: 0.78 µg/mL (≈ 1.52 µM) for the first, 0.39 µg/mL (≈ 0.758 µM) for the second.

Going from `CC(=O)NC[C@H]1CN(c2ccc(N3CCN(Cc4cc(-c5ccccn5)no4)CC3)c(F)c2)C(=O)O1` to `CC(=O)NC[C@H]1CN(c2ccc(N3CCN(Cc4cc(-c5ccc(Cl)cc5)no4)CC3)c(F)c2)C(=O)O1`, the MIC rises from 1.56 µg/mL (≈ 3.15 µM) to 50 µg/mL (≈ 94.7 µM) (32-fold).

Compared with `COc1cc(C(=O)N2CCN(c3ccc(N4C[C@H](CNC(C)=O)OC4=O)cc3F)CC2)on1`, `CC(=O)NC[C@H]1CN(c2ccc(N3CCN(C(=O)c4cc(Br)no4)CC3)c(F)c2)C(=O)O1` is 2-fold lower in MIC: 1.56 µg/mL (≈ 3.38 µM) for the first, 0.78 µg/mL (≈ 1.53 µM) for the second.

First: CC(=O)NC[C@H]1CN(c2ccc(N3CCN(C(=O)c4ccno4)CC3)c(F)c2)C(=O)O1
Second: CC(=O)NC[C@H]1CN(c2ccc(N3CCN(C(=O)c4cc(Cl)no4)CC3)c(F)c2)C(=O)O1
The MIC of the first is 2-fold higher: 1.56 µg/mL (≈ 3.62 µM) for the first, 0.78 µg/mL (≈ 1.67 µM) for the second.

Compared with `CC(=O)NC[C@H]1CN(c2ccc(N3CCN(Cc4cc(-c5ccc(Oc6ccccc6)cc5)no4)CC3)c(F)c2)C(=O)O1`, `CC(=O)NC[C@H]1CN(c2ccc(N3CCN(Cc4cc(-c5ccc(C)cc5)no4)CC3)c(F)c2)C(=O)O1` is 8-fold lower in MIC: 100 µg/mL (≈ 171 µM) for the first, 12.5 µg/mL (≈ 24.6 µM) for the second.

`CC(=O)NC[C@H]1CN(c2ccc(N3CCN(C(=O)c4nccs4)CC3)c(F)c2)C(=O)O1` and `CC(=O)NC[C@H]1CN(c2ccc(N3CCN(C(=O)c4cccs4)CC3)c(F)c2)C(=O)O1` are the same in MIC: 1.56 µg/mL (≈ 3.49 µM) for the first, 1.56 µg/mL (≈ 3.49 µM) for the second.

First: CC(=O)NC[C@H]1CN(c2ccc(N3CCN(C(=O)c4cc(C(=O)O)no4)CC3)c(F)c2)C(=O)O1
Second: CC(=O)NC[C@H]1CN(c2ccc(N3CCN(C(=O)c4cc(C(N)=O)no4)CC3)c(F)c2)C(=O)O1
The MIC of the first is 64-fold higher: 100 µg/mL (≈ 210 µM) for the first, 1.56 µg/mL (≈ 3.29 µM) for the second.

Compared with `CC(=O)NC[C@H]1CN(c2ccc(N3CCN(C(=O)c4cc(C(F)(F)F)no4)CC3)c(F)c2)C(=O)O1`, `CC(=O)NC[C@H]1CN(c2ccc(N3CCN(C(=O)c4cc(O)no4)CC3)c(F)c2)C(=O)O1` is 16-fold higher in MIC: 3.12 µg/mL (≈ 6.25 µM) for the first, 50 µg/mL (≈ 112 µM) for the second.

`CC(=O)NC[C@H]1CN(c2ccc(N3CCN(C(=O)c4cc(C(=O)N(C)C)no4)CC3)c(F)c2)C(=O)O1` and `CC(=O)NC[C@H]1CN(c2ccc(N3CCN(C(=O)c4cc(COC(=O)N(C)C)no4)CC3)c(F)c2)C(=O)O1` are the same in MIC: 3.12 µg/mL (≈ 6.21 µM) for the first, 3.12 µg/mL (≈ 5.86 µM) for the second.

`CC(=O)NC[C@H]1CN(c2ccc(N3CCN(C(=O)CO)CC3)c(F)c2)C(=O)O1` [EPEREZOLID] and `CC(=O)NC[C@H]1CN(c2ccc(N3CCN(C(=O)c4cc(COC(N)=O)no4)CC3)c(F)c2)C(=O)O1` are the same in MIC: 1.56 µg/mL (≈ 3.96 µM) for the first, 1.56 µg/mL (≈ 3.09 µM) for the second.

`CCCCCCCCCCS(=O)(=O)N[C@H](CCCCCC)COP(=O)(O)OCCO` and `CC(=O)NC[C@H]1CN(c2ccc(N3CCN(C(=O)c4cc(OCCF)no4)CC3)c(F)c2)C(=O)O1` are the same in MIC: 1.56 µg/mL (≈ 3.29 µM) for the first, 1.56 µg/mL (≈ 3.16 µM) for the second.

First: CC(=O)NC[C@H]1CN(c2ccc(N3CCN(Cc4cc(-c5ccc(F)cc5)no4)CC3)c(F)c2)C(=O)O1
Second: CC(=O)NC[C@H]1CN(c2ccc(N3CCN(Cc4cc(-c5ccc(C#N)cc5)no4)CC3)c(F)c2)C(=O)O1
The MIC of the first is 2-fold lower: 3.12 µg/mL (≈ 6.1 µM) for the first, 6.25 µg/mL (≈ 12.1 µM) for the second.

Compared with `CC(=O)NC[C@H]1CN(c2ccc(N3CCOCC3)c(F)c2)C(=O)O1` [LINEZOLID], `COc1cc(CN2CCN(c3ccc(N4C[C@H](CNC(C)=O)OC4=O)cc3F)CC2)on1` is 2-fold higher in MIC: 1.56 µg/mL (≈ 4.62 µM) for the first, 3.12 µg/mL (≈ 6.97 µM) for the second.

Molecule `CC(=O)NC[C@H]1CN(c2ccc(N3CCN(Cc4cc(/C=C/c5ccccc5)no4)CC3)c(F)c2)C(=O)O1` has an MIC of 25 µg/mL (≈ 48.1 µM).
